According to patent US5750504A, “Antimicrobial proteins” (Zeneca Agrochemicals, priority 1996, dated 1998):

Columns and labels:
Assay type in all cases: cell-based
[1] = system: Fusarium culmorum; test: Antifungal activity assay (microspectrophotometry); details: for IC50: host Cereals, inoculum Sp, period of incubation in AFP-solution 48
Protocol: (§1) Antifungal activity was measured by microspectrophotometry as previously described (Broekaert, 1990, FEMS Microbiol Lett, 69:55-60). Routinely, tests were performed with 20 μl of a (filter-sterilized) test solution and 80 μl of a suspension of fungal spores (2×10^4 spores/ml) in half strength potato dextrose broth (1/2 PDB). […] Control microcultures contained 20 μl of sterile distilled water and 80 μl of the fungal spore suspension.
(§2) Unless otherwise stated the test organism was Fusarium culmorum (strain IMI 180420) and incubation was done at 25° C. for 48 hours. Percent growth inhibition is defined as 100 times the ratio of the corrected absorbance of the control microculture minus the corrected absorbance of the test microculture over the corrected absorbance at 595 nm of the control microculture. The corrected absorbance values equal the absorbance at 595 nm of the culture measured after 48 hours minus the absorbance at 595 nm measured after 30 min.
(§3) The antifungal potency of the purified proteins was assessed on different plant pathogenic fungi, using the assay described in Example 1. Growth of fungi, collection and harvest of fungal spores and preparation of mycelial fragments were done as previously described (Broekaert et al, 1990, FEMS Microbiol Lett, 69:55-60). Serial dilutions of the antifungal proteins were applied to the fungi, either using growth medium SMF- (the synthetic growth medium of Example 1), medium SMF+ (medium SMF- supplemented with 1 mM CaCl2 and 50 mM KCl), growth medium 1/2 PDB- (half strength potato dextrose broth as in Example 1) or growth medium 1/2 PDB+ (medium 1/2 PDB- supplemented with 1 mM CaCl2 and 50 mM Kcl). The percent growth inhibition was measured by microspectrophotometry. The concentration required for 50% growth inhibition after 48 h of incubation (IC50 value) was calculated from the dose-reponse curves.
(§4) The abbreviations used are: IC50 =concentration required for 50% growth inhibition determined as described in Example 1; ND=not determined; Sp=spores; PrSp=spores pregerminated in the medium for 24 hours; MF=mycelial fragments preincubated for 48 hours in the medium prior to addition of the proteins; BHR=broad host range; SF=saprophytic fungus; SMF-=synthetic growth medium as described in Example 1; SMF+=SMF- supplemented with 1 mM CaCl2 and 50 mM KCl; 1/2PDB-=half strength potato dextrose broth as described in Example 1; 1/2PDB+=1/2PDB- supplemented with 1 mM CaCl2 and 50 mM KCl.

[2] = system: Septoria tritici; test: Antifungal activity assay (microspectrophotometry); details: strain K1097, host Triticum, inoculum Sp, period of incubation in AFP-solution 48
Protocol: as §1, §2, §3, §4

[3] = system: Verticillium albo-atrum; test: Antifungal activity assay (microspectrophotometry); details: strain K0937, host Lycoperisicum, inoculum Sp, period of incubation in AFP-solution 48
Protocol: as §1, §2, §3, §4

[4] = system: Cladosporium sphaerospermum; test: Antifungal activity assay (microspectrophotometry); details: strain K0791, SF, inoculum Sp, period of incubation in AFP-solution 48
Protocol: as §1, §2, §3, §4

[5] = system: Mycoshpaerella fijiensis; test: Antifungal activity assay (microspectrophotometry); details: strain FUL549; host Musa; medium 1/2PDB+; inoculum MF; period of incubation in AFP-solution 96
Protocol: as §1, §2, §3, §4

[6] = system: Botrytis cinerea; test: Antifungal activity assay (microspectrophotometry); details: strain K1147, host BHR, inoculum Sp, period of incubation in AFP-solution 48
Protocol: as §1, §2, §3, §4

[7] = system: Ascochyta pisi; test: Antifungal activity assay (microspectrophotometry); details: strain MUCL30164, host Pisum, inoculum Sp, period of incubation in AFP-solution 48
Protocol: as §1, §2, §3, §4

[8] = system: Trichoderma viride; test: Antifungal activity assay (microspectrophotometry); details: strain K1127, SF, inoculum Sp, period of incubation in AFP-solution 48
Protocol: as §1, §2, §3, §4

[9] = system: Penicillum digitatum; test: Antifungal activity assay (microspectrophotometry); details: host Citrus fruit, inoculum Sp, period of incubation in AFP-solution 48
Protocol: as §1, §2, §3, §4

[10] = system: fungi; test: Morphological effect on fungal hyphae (fungi in general)
[11] = system: Bacillus subtilis JHCC 553331; test: Antibacterial activity assay (microspectrophotometry)
Protocol: Antibacterial activity was measured microspectrophotometrically as follows. A bacterial suspension was prepared by inoculating soft nutrient agarose (tryptone, 10 g/l; Seaplaque agarose (FMC), 5 g/l). Aliquots (80 μl) of the bacterial suspension (10^5 colony forming units per ml) were added to filter-sterilized samples (20 μl) in flat-bottom 96-well microplates. The absorbance at 595 nm of the culture was measured with the aid of a microplate reader after 30 minutes and 24 hours of incubation at 28° C. Percent growth inhibition was calculated as described above for the antifungal activity assay.
The antibacterial activities of Ah-AMP1 and Hs-AFP1 were measured on four gram positive bacteria (Bacillus subtilis JHCC 553331; Micrococcus luteus ATCC 93411; Staphylococcus aureus ATCC 25923; Streptococcus feacolis ATCC 29212) and two gram negative bacteria (Eschericia coli HB101 and Proteus vulgaris JHCC 558711).

| Substance | IC50 ([1]; strain IMI180420, medium SMF+) [µg/mL] | IC50 ([1]; strain IMI180420, medium SMF-) [µg/mL] | IC50 ([1]; strain K0311, medium 1/2PDB+) [µg/mL] | IC50 ([1]; strain K0311, medium 1/2PDB-) [µg/mL] | IC50 ([2]; medium 1/2PDB+) [µg/mL] | IC50 ([2]; medium 1/2PDB-) [µg/mL] | IC50 ([3]; medium 1/2PDB+) [µg/mL] | IC50 ([3]; medium 1/2PDB-) [µg/mL] | IC50 ([4]; medium 1/2PDB+) [µg/mL] | IC50 ([4]; medium 1/2PDB-) [µg/mL] | IC50 [5] [µg/mL] | IC50 ([6]; medium 1/2PDB+) [µg/mL] | IC50 ([6]; medium 1/2PDB-) [µg/mL] | IC50 ([7]; medium SMF+) [µg/mL] | IC50 ([7]; medium SMF-) [µg/mL] | IC50 ([8]; medium 1/2PDB+) [µg/mL] | IC50 ([8]; medium 1/2PDB-) [µg/mL] | IC50 ([9]; strain K0679, medium 1/2PDB-) [µg/mL] | IC50 ([9]; strain K0879, medium 1/2PDB+) [µg/mL] | hyperbranching of fungi [10] | other results |
| --- | --- | --- | --- | --- | --- | --- | --- | --- | --- | --- | --- | --- | --- | --- | --- | --- | --- | --- | --- | --- | --- |
| Hs-AFP1: Heuchera sanquinea antifungal protein 1; 5 kDa polypeptide purified from seeds, 54 amino acids, SEQ ID NO 1 (DGVKLCDVPSGTWSGHCGSSSKCSQQCKDREHFAYGGACHYQFPSVKCFCKRQC) | 1 | 0.5 | 3 | 1 | 3 | 0.5 | 30 | 12 | 3 | 1 | 12.5 | 25 | 6 | > 5 | 1.5 | > 100 | 15 | 1 | 3 | cause hyperbranching | antifungal activity on Fusarium culmorum (in words) ([1]; in 1/2PDB+): highly active; interference with fungal growth processes (hyphal length) [10]: reduction in hyphal length; inhibition of bacterial growth ([11]; tested at 200 μg/ml): did not inhibit the growth |
| Ah-AMP1: Aesculus hippocastanum antimicrobial protein 1; 5 kDa polypeptide purified from seeds, 50 amino acids, SEQ ID NO 2 (LCNERPSQTWSGNCGNTAHCDKQCQDWEKASHGACHKRENHWKCFCYFNC) | 25 | 1.5 | > 100 | 12 | 1.5 | 0.5 | > 100 | 6 | 12 | 0.5 | 0.75 | > 100 | 25 | 15 | 0.8 | > 100 | > 100 | 6 | 25 | do not | interference with fungal growth processes (hyphal length) [10]: reduction in hyphal length; inhibition of bacterial growth ([11]; at 100 μg/ml): inhibited growth |
